The data set relates to rodent lifetime carcinogenesis bioassay, tumor incidence TD50. Kind of data set: carcinogenic potency in animals, long-term in vivo studies, CPDB compilation (AID 1745844).

Active and inactive are the calls of the source. The rule behind the calls is not given here.

Broadly, the TD50 is the 50% point of the dose-response relation for the toxic effect studied.

As for `C[C@@H]1CCC[C@H](C)N1CCCC(O)(c1ccccc1)c1ccccn1` (some centres not stated), the TD50 is, setting by setting: (mouse, strain B6C3F1, females, in feed, site: all sites, lesion: lymphoma, dosed 104 weeks, study length 104 weeks) 94.6 mg/kg/day (inactive); (mouse, strain B6C3F1, females, in feed, site: liver, lesion: hepatocellular adenoma, dosed 104 weeks, study length 104 weeks) 1560 mg/kg/day (inactive); (mouse, strain B6C3F1, females, in feed, site: liver, lesion: hepatocellular carcinoma, dosed 104 weeks, study length 104 weeks) 978 mg/kg/day (inactive); (mouse, strain B6C3F1, females, in feed, site: lung, lesion: adenoma, dosed 104 weeks, study length 104 weeks) 1980 mg/kg/day (inactive); (mouse, strain B6C3F1, males, in feed, site: lung, lesion: adenoma, dosed 104 weeks, study length 104 weeks) 947 mg/kg/day (inactive); (mouse, strain B6C3F1, males, in feed, site: lung, lesion: carcinoma, dosed 104 weeks, study length 104 weeks) 4040 mg/kg/day (inactive). Moreover, the TD50 by setting is: (rat, strain Wistar, females, in feed, site: any site (literature study), lesion: several types, types named in the paper, dosed 104 weeks, study length 104 weeks) 440 mg/kg/day (inactive); (rat, strain Wistar, females, in feed, site: pituitary gland, lesion: adenoma, dosed 104 weeks, study length 104 weeks) 15.9 mg/kg/day (inactive); (rat, strain Wistar, males, in feed, site: adrenal gland, lesion: cortical adenoma, dosed 104 weeks, study length 104 weeks) 104 mg/kg/day (inactive). Further, the carcinogen call reads like this: (mouse, strain B6C3F1, females, in feed, site: any site (literature study), lesion: several types, types named in the paper, dosed 104 weeks, study length 104 weeks) “negative (inactive)”; (mouse, strain B6C3F1, females, in feed, site: lung, lesion: carcinoma, dosed 104 weeks, study length 104 weeks) “negative (inactive)”; (mouse, strain B6C3F1, males, in feed, site: any site (literature study), lesion: several types, types named in the paper, dosed 104 weeks, study length 104 weeks) “negative (inactive)”; (mouse, strain B6C3F1, males, in feed, site: liver, lesion: hepatocellular adenoma, dosed 104 weeks, study length 104 weeks) “negative (inactive)”; (mouse, strain B6C3F1, males, in feed, site: liver, lesion: hepatocellular carcinoma, dosed 104 weeks, study length 104 weeks) “negative (inactive)”; (rat, strain Wistar, females, in feed, site: liver, lesion: one or several types, types not named, dosed 104 weeks, study length 104 weeks) “negative (inactive)”. Moreover, the carcinogen call is, setting by setting: (rat, strain Wistar, males, in feed, site: any site (literature study), lesion: several types, types named in the paper, dosed 104 weeks, study length 104 weeks) “negative (inactive)”; (rat, strain Wistar, males, in feed, site: liver, lesion: one or several types, types not named, dosed 104 weeks, study length 104 weeks) “negative (inactive)”.
Consider `CN(N=O)C(=O)N[C@@H](C=O)[C@@H](O)[C@H](O)[C@H](O)CO`, for which the TD50 is 0.188 mg/kg/day (mouse, strain Swiss, females, i.p., site: any site (literature study), lesion: benign tumor, dosed 26 weeks, study length 78 weeks); 6.32 mg/kg/day (mouse, strain Swiss, females, i.p., site: any site (literature study), lesion: malignant tumor, dosed 26 weeks, study length 78 weeks); 0.486 mg/kg/day (mouse, strain Swiss, females, i.p., site: any site (literature study), lesion: several types, types named in the paper, dosed 26 weeks, study length 78 weeks); 1.39 mg/kg/day (mouse, strain Swiss, females, i.p., site: kidney, lesion: adenoma, dosed 26 weeks, study length 78 weeks); 0.193 mg/kg/day (mouse, strain Swiss, females, i.p., site: lung, lesion: several types, types named in the paper, dosed 26 weeks, study length 78 weeks); 13.9 mg/kg/day (mouse, strain Swiss, females, i.p., site: uterus, lesion: sarcoma, dosed 26 weeks, study length 78 weeks). The TD50 by setting is: (mouse, strain Swiss, males, i.p., site: any site (literature study), lesion: benign tumor, dosed 26 weeks, study length 72 weeks) 0.698 mg/kg/day; (mouse, strain Swiss, males, i.p., site: any site (literature study), lesion: malignant tumor, dosed 26 weeks, study length 72 weeks) 3.53 mg/kg/day; (mouse, strain Swiss, males, i.p., site: any site (literature study), lesion: several types, types named in the paper, dosed 26 weeks, study length 72 weeks) 0.217 mg/kg/day; (mouse, strain Swiss, males, i.p., site: kidney, lesion: tubular-cell adenoma, dosed 26 weeks, study length 72 weeks) 2.44 mg/kg/day; (mouse, strain Swiss, males, i.p., site: liver, lesion: several types, types named in the paper, dosed 26 weeks, study length 72 weeks) 27.3 mg/kg/day; (mouse, strain Swiss, males, i.p., site: lung, lesion: several types, types named in the paper, dosed 26 weeks, study length 72 weeks) 0.462 mg/kg/day. Further, the TD50 (rat, strain Charles River CD (Sprague-Dawley), females, i.p., site: any site (literature study), lesion: malignant tumor, dosed 26 weeks, study length 78 weeks) came out at 0.363 mg/kg/day; the TD50 (rat, strain Charles River CD (Sprague-Dawley), females, i.p., site: any site (literature study), lesion: several types, types named in the paper, dosed 26 weeks, study length 78 weeks) came out at 1.14 mg/kg/day; the TD50 (rat, strain Charles River CD (Sprague-Dawley), females, i.p., site: kidney, lesion: several types, types named in the paper, dosed 26 weeks, study length 78 weeks) was 1.27 mg/kg/day; the TD50 (rat, strain Charles River CD (Sprague-Dawley), females, i.p., site: liver, lesion: cavernous hemangioma, dosed 26 weeks, study length 78 weeks) is 5.63 mg/kg/day; the TD50 (rat, strain Charles River CD (Sprague-Dawley), females, i.p., site: liver, lesion: several types, types named in the paper, dosed 26 weeks, study length 78 weeks) came out at 4.43 mg/kg/day; the TD50 (rat, strain Charles River CD (Sprague-Dawley), females, i.p., site: mammary gland, lesion: carcinoma, dosed 26 weeks, study length 78 weeks) was 1.41 mg/kg/day. The TD50 was 2.46 mg/kg/day (rat, strain Charles River CD (Sprague-Dawley), females, i.p., site: uterus, lesion: sarcoma, dosed 26 weeks, study length 78 weeks); 16.8 mg/kg/day (rat, strain Charles River CD (Sprague-Dawley), males, i.p., site: any site (literature study), lesion: benign tumor, dosed 26 weeks, study length 78 weeks); 1.03 mg/kg/day (rat, strain Charles River CD (Sprague-Dawley), males, i.p., site: any site (literature study), lesion: malignant tumor, dosed 26 weeks, study length 78 weeks); 0.751 mg/kg/day (rat, strain Charles River CD (Sprague-Dawley), males, i.p., site: any site (literature study), lesion: several types, types named in the paper, dosed 26 weeks, study length 78 weeks); 0.776 mg/kg/day (rat, strain Charles River CD (Sprague-Dawley), males, i.p., site: kidney, lesion: several types, types named in the paper, dosed 26 weeks, study length 78 weeks); 20.4 mg/kg/day (rat, strain Charles River CD (Sprague-Dawley), males, i.p., site: liver, lesion: liver-cell carcinoma, dosed 26 weeks, study length 78 weeks).
For `Nc1cc(Cl)c(-c2cc(Cl)c(N)cc2Cl)cc1Cl`, the TD50 worked out at 109 mg/kg/day (mouse, strain dd, females, in feed, site: all sites, lesion: malignant lymphoma, dosed 104 weeks, study length 104 weeks); 87.2 mg/kg/day (mouse, strain dd, females, in feed, site: any site (literature study), lesion: malignant tumor, dosed 104 weeks, study length 104 weeks); 735 mg/kg/day (rat, strain Wistar, females, in feed, site: liver, lesion: hepatoma, dosed 104 weeks, study length 104 weeks); 2310 mg/kg/day (rat, strain Wistar, females, in feed, site: urinary bladder, lesion: transitional-cell carcinoma, dosed 104 weeks, study length 104 weeks); 561 mg/kg/day (rat, strain Wistar, males, in feed, site: urinary bladder, lesion: transitional-cell carcinoma, dosed 104 weeks, study length 104 weeks).
Consider `CC(=O)Nc1ccc(CC(=O)O)cc1`, for which the carcinogen call (mouse, strain B6C3F1, females, in feed, site: liver, lesion: hepatocellular adenoma, dosed 78 weeks, study length 78 weeks) is “negative (inactive)”; the carcinogen call (mouse, strain B6C3F1, females, in feed, site: liver, lesion: hepatocellular carcinoma, dosed 78 weeks, study length 78 weeks) was “negative (inactive)”; the carcinogen call (mouse, strain B6C3F1, females, in feed, site: lung, lesion: several types, types named in the paper, dosed 78 weeks, study length 78 weeks) is “negative (inactive)”; the carcinogen call (mouse, strain B6C3F1, males, in feed, site: liver, lesion: hepatocellular adenoma, dosed 78 weeks, study length 78 weeks) is “negative (inactive)”; the carcinogen call (rat, strain Fischer 344, females, in feed, site: liver, lesion: several types, types named in the paper, dosed 104 weeks, study length 104 weeks) was “negative (inactive)”; the carcinogen call (rat, strain Fischer 344, males, in feed, site: liver, lesion: hepatocellular adenoma, dosed 104 weeks, study length 104 weeks) is “negative (inactive)”. In addition, the carcinogen call (rat, strain Fischer 344, males, in feed, site: liver, lesion: hepatocellular carcinoma, dosed 104 weeks, study length 104 weeks) was “negative (inactive)”. For the same compound, the TD50 is, setting by setting: (mouse, strain B6C3F1, males, in feed, site: lung, lesion: alveolar/bronchiolar adenoma, dosed 78 weeks, study length 78 weeks) 27700 mg/kg/day (inactive); (mouse, strain B6C3F1, males, in feed, site: lung, lesion: alveolar/bronchiolar carcinoma, dosed 78 weeks, study length 78 weeks) 56100 mg/kg/day (inactive).
Regarding `CC(=O)OC(OC(C)=O)c1ccc([N+](=O)[O-])o1`, the carcinogen call (rat, strain Holtzman albino (Sprague-Dawley derived), females, in feed, site: mammary tissue, wider than the gland, lesion: one or several types, types not named, dosed 36 weeks, study length 54 weeks) was “negative (inactive)”. For the same compound, where the note is “rat, strain Holtzman albino (Sprague-Dawley derived), females, in feed, site: mammary tissue, wider than the gland, lesion: one or several types, types not named, dosed 44 weeks, study length 60 weeks”, the TD50 was 105 mg/kg/day (inactive).
With `COC(=O)C(c1ccccc1)C1CCCCN1N=O` (configuration not stated), the carcinogen call by setting is: (mouse, strain (C57BL/6 x BALB/c)F1, females, in drinking water, site: any site (literature study), lesion: several types, types named in the paper, dosed 73 weeks, study length 106 weeks) “negative (inactive)”; (mouse, strain (C57BL/6 x BALB/c)F1, females, in drinking water, site: liver, lesion: one or several types, types not named, dosed 73 weeks, study length 106 weeks) “negative (inactive)”; (mouse, strain (C57BL/6 x BALB/c)F1, females, in drinking water, site: lung, lesion: one or several types, types not named, dosed 73 weeks, study length 106 weeks) “negative (inactive)”; (mouse, strain (C57BL/6 x BALB/c)F1, males, in drinking water, site: any site (literature study), lesion: several types, types named in the paper, dosed 73 weeks, study length 106 weeks) “negative (inactive)”; (mouse, strain (C57BL/6 x BALB/c)F1, males, in drinking water, site: lung, lesion: one or several types, types not named, dosed 73 weeks, study length 106 weeks) “negative (inactive)”.

The record behind these values is PubChem BioAssay AID1745844 (Carcinogenic Potency Database (CPDB), 2022).
